Results reported in PMC8465649, “Semaphorin 3A—Glycosaminoglycans Interaction as Therapeutic Target for Axonal Regeneration” (Pharmaceuticals, 2021).

Experiments:
[1] = NMR competition (WaterLOGSY / spin-lock filtered 1H): displacement of FS2/FS3 peptides from heparin agarose resin; type: binding; conditions: WaterLOGSY; 1:1 peptoid/FS2, both 1 mM; pH 7.5
Description: NMR competition experiments involved the acquisition of 1D-^1H WaterLOGSY or spin-lock filtered NMR spectra. Thus, FS2 peptide is displaced from heparin agarose resin by CSIC02 (1:1 peptoid/FS2, both 1 mM), but not by CSIC03 (Figure S15). […] We reasoned that if CSIC02 was able to interact with GAG and displace FS2/FS3 basic peptides, it may also interfere with SCTWT–heparin interaction. To investigate if CSIC02 could displace SCTWT from heparin dp14 and to define the SCTWT residues affected, 2D NMR ^1H-^15N HSQC CSP experiments were used. Figure 8a illustrates the chemical shift effects of CSIC02 addition to a sample of SCTWT containing dp14 heparin. […] In Figure 8b, we display the chemical shift perturbation of SCTWT NMR spectra in the presence of dp14 and CSIC02. Thus, as the two CSP plots in Figure 4b and Figure 8b were calculated using as reference SCTWT alone in solution, we can compare them directly. […] Moreover, splitting of signals for some residues (R733, R734, and Q735 in the first GAG-binding region) was observed (Figure 8c). This observation is compatible with the presence of different species in slow chemical exchange in solution, with partial detachment of SCTWT from heparin. The amount of CSIC02 used in these experiments can be rationalized considering that the SCTWT has ca. 12 positive charges at neutral pH (Figure S18), while CSIC02 is tricationic. Since the binding is mediated by ionic polar interactions, a large excess of CSIC02 is needed to counterbalance the SCTWT-dp14 binding.
Next, 1D ^1H T1ρ relaxation filtered and WaterLOGSY NMR experiments were acquired at 25 °C on a 500-MHz spectrometer (Varian Inova; Agilent Technologies, Santa Clara, CA, USA) equipped with an AutoX inverse double-resonance probe with a z-shielded pulsed-field gradient coil. The samples were prepared in a 5-mm Wilmad NMR 528-PP tubes with 10 mM Tris-d11 (for peptide/GAG samples) and 150 mM NaCl dissolved in 90% H2O/10% D2O at pH 7.5. All spectra were obtained with a sweep width of 8 kHz and 16,384 acquired data points. The experiments were recorded using the standard pulse sequence in the (WLOGSY_ES) Chempack library, with excitation sculpting to suppress water resonances. For Water-LOGSY experiments, the first water-selective 180° pulse was 25 ms long. The spectra were acquired with 1200 transients and a spin-lock pulse of 50 ms at 3.7 kHz. To phase Water-LOGSY spectra correctly, it is necessary to use an internal reference compound. In our case, the reference is the residual ethanol absorbed/bonded in heparin-agarose resin (this interaction was previously confirmed with T1ρ filtered experiments), which appears as a positively phased signal. […]

[2] = tested on: SCTWT–heparin interaction; assay: 2D 1H-15N HSQC CSP: displacement of SCTWT from dp14 heparin; type: binding, human; conditions: 0.2 mM SCTWT, 0.05 mM dp14 heparin, 4 mM CSIC02, pH 4.5
Description: NMR competition experiments involved the acquisition of 1D-^1H WaterLOGSY or spin-lock filtered NMR spectra. Thus, FS2 peptide is displaced from heparin agarose resin by CSIC02 (1:1 peptoid/FS2, both 1 mM), but not by CSIC03 (Figure S15). […] We reasoned that if CSIC02 was able to interact with GAG and displace FS2/FS3 basic peptides, it may also interfere with SCTWT–heparin interaction. To investigate if CSIC02 could displace SCTWT from heparin dp14 and to define the SCTWT residues affected, 2D NMR ^1H-^15N HSQC CSP experiments were used. Figure 8a illustrates the chemical shift effects of CSIC02 addition to a sample of SCTWT containing dp14 heparin. […] In Figure 8b, we display the chemical shift perturbation of SCTWT NMR spectra in the presence of dp14 and CSIC02. Thus, as the two CSP plots in Figure 4b and Figure 8b were calculated using as reference SCTWT alone in solution, we can compare them directly. […]
Figure 8 (a) Overlay of [^1H-^15N]-HSQC spectra of 0.2 mM Sema3A C-terminal region (orange) highlighting the changes of 0.05 mM (or 0.35 mM in disaccharide units) dp14 heparin oligosaccharide binding in the absence (purple) and the presence (turquoise) of 4 mM CSIC02. […] The absolute values of the chemical shift differences between the presence and absence of dp14 are plotted in ppm and calculated comparing with the chemical shifts of the protein alone. […]

## CCN(CC)CCN(CC(=O)N(CCN1CCCC1)CC(=O)N(CCC1CCCN1C)CC(N)=O)C(=O)OCc1ccccc1 (centres unmarked) [CSIC02]
[1]
  displacement of FS2 peptide from heparin agarose resin: displaced
[2]
  effect on dp14 heparin-induced chemical shift perturbations of SCTWT: modest decrease in dp14-induced perturbations
